# Results taken from US12018021B2 (UCB Biopharma SRL, priority 2018, dated 2024).
# Molecular target: IgE-Tb / FcεRIα-Y131A-AF488 (Homo sapiens, UniProt P01854)
# Test: IgE-Tb / FcεRIα-Y131A-AF488 FRET assay (protocol for examples 1 to 233)
# Assay type: binding
# Conditions: examples 1 to 233: 5 nM IgE-Tb, 25 nM FcεRIα-Y131A-AF488, incubated 2 hours at room temperature; read-out: Y131A FRET IC50 range
# Method in brief: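 TR-FRET displacement with 5 nM IgE-Tb and 25 nM FcεRIα-Y131A-AF488 (final), 10-point 3-fold compound dilutions from typically 10 μM top, 2% DMSO, 2 h at room temperature. Excitation 330 nm, 520/495 nm emission ratio; MIN set with 200 nM unlabelled FcεRIα. IC50 from four-parameter logistic fit of percent inhibition.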
# Sequence of IgE-Tb / FcεRIα-Y131A-AF488 (P01854 1-427 limits assumed, stated change not applied): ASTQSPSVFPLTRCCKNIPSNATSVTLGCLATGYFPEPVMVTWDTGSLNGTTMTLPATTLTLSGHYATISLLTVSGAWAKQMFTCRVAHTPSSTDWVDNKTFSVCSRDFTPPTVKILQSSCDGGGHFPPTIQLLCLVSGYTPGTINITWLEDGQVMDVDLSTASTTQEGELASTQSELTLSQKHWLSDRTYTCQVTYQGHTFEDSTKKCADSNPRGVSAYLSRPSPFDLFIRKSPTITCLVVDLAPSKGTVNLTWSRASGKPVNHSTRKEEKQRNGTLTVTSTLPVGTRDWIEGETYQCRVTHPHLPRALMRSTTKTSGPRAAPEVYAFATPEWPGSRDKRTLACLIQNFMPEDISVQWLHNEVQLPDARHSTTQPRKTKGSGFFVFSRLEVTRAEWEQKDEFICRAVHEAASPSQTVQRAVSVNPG
row,SMILES,IC50 [µM]
1,"O=C(NCC1CC1)c1c(NC(=O)C2CC2)sc2c1C[C@@H](n1cnnc1Nc1ccc[n+]([O-])c1)CC2 [Example 125, (5S)-2-(Cyclopropanecarbonylamino)-N-(cyclopropylmethyl)-5-[3-[(1-oxidopyridin-1-ium-3-yl)amino]-1,2,4-triazol-4-yl]-4,5,6,7-tetrahydrobenzothiophene-3-carboxamide]",< 1
2,"Cc1ccc(NC(=N[N+](=O)[O-])NC2CCc3sc(NC(=O)C4CC4)c(C(=O)NCC4CC4)c3C2)cc1 (centres unmarked) [Example 126, 2-(cyclopropanecarbonylamino)-N-(cyclopropylmethyl)-5-[[N′-nitro-N-(p-tolyl)carbamimidoyl]amino]-4,5,6,7-tetrahydrobenzothiophene-3-carboxamide]",< 1
3,"O=C(NCC1CC1)c1c(NC(=O)C2CC2)sc2c1C[C@@H](n1ccnc1Nc1cccnc1)CC2 [Example 127, (5S)-2-(Cyclopropanecarbonylamino)-N-(cyclopropylmethyl)-5-[2-(3-pyridylamino)imidazol-1-yl]-4,5,6,7-tetrahydrobenzothiophene-3-carboxamide]",< 1
4,"O=C(NCC1CC1)c1c(NC(=O)C2CC2)sc2c1C[C@@H](n1cnnc1NCC1CC1)CC2 [Example 130, (5S)-2-(Cyclopropanecarbonylamino)-N-(cyclopropylmethyl)-5-[3-(cyclopropylmethylamino)-1,2,4-triazol-4-yl]-4,5,6,7-tetrahydrobenzothiophene-3-carboxamide]",< 1
5,"Cc1cc(NC(=S)N[C@H]2CCc3sc(NC(=O)C4CC4)c(C(=O)NCC4CC4)c3C2)n(C)n1 [Example 131, (5S)-2-(Cyclopropanecarbonylamino)-N-(cyclopropylmethyl)-5-[(2,5-dimethylpyrazol-3-yl)carbamothioylamino]-4,5,6,7-tetrahydrobenzothiophene-3-carboxamide]",< 1
6,"O=C(NCC1CC1)c1c(NC(=O)C2CC2)sc2c1C[C@@H](n1cnnc1Nc1cncnc1)CC2 [Example 132, (5S)-2-(Cyclopropanecarbonylamino)-N-(cyclopropylmethyl)-5-[3-(pyrimidin-5-ylamino)-1,2,4-triazol-4-yl]-4,5,6,7-tetrahydrobenzothiophene-3-carboxamide]",< 1
7,"O=C(NCC1CC1)c1c(NC(=O)C2CC2)sc2c1C[C@@H](n1ccnc1NCC1CC1)CC2 [Example 133, (5S)-2-(Cyclopropanecarbonylamino)-N-(cyclopropylmethyl)-5-[2-(cyclopropylmethylamino)imidazol-1-yl]-4,5,6,7-tetrahydrobenzothiophene-3-carboxamide]",< 1
8,"CCNC1=NS(=O)(=O)N=C1NC1CCc2sc(NC(=O)C3CC3)c(C(=O)NCC3CC3)c2C1 (centres unmarked) [Example 134, 2-(Cyclopropanecarbonylamino)-N-(cyclopropylmethyl)-5-[[4-(ethylamino)-1,1-dioxo-1,2,5-thiadiazol-3-yl]amino]-4,5,6,7-tetrahydrobenzothiophene-3-carboxamide]",< 1
9,"Cc1ccc(NC(=C[N+](=O)[O-])NC2CCc3sc(NC(=O)C4CC4)c(C(=O)NCC4CC4)c3C2)cc1 (centres unmarked) [Example 135, 2-(cyclopropanecarbonylamino)-N-(cyclopropylmethyl)-5-[[1-(4-methylanilino)-2-nitro-vinyl]amino]-4,5,6,7-tetrahydrobenzothiophene-3-carboxamide]",< 1
10,"CCNC(=NC#N)N(C)[C@H]1CCc2sc(NC(=O)C3CC3)c(C(=O)NCC3CC3)c2C1 [Example 136, (5S)-5-[(N′-cyano-N-ethyl-carbamimidoyl)-methyl-amino]-2-(cyclopropanecarbonylamino)-N-(cyclopropylmethyl)-4,5,6,7-tetrahydrobenzothiophene-3-carboxamide]",< 1
11,"Cc1ccc(Nc2c(NC3CCc4sc(NC(=O)C5CC5)c(C(=O)NCC5CC5)c4C3)c(=O)c2=O)cc1 (centres unmarked) [Example 137, 2-(Cyclopropanecarbonylamino)-N-(cyclopropylmethyl)-5-[[2-(4-methylanilino)-3,4-dioxo-cyclobuten-1-yl]amino]-4,5,6,7-tetrahydrobenzothiophene-3-carboxamide]",< 1
